# Laboratory results published in patent publication US20220064238A1, “Methods And Compositions For Modifying Transcription Factor Activity by Targeting The Human Mediator Complex Using Cell Penetrating Memetic Peptides And Methods of Treating Cancer Using The Same” (The Regents of the University of Colorado, a body corporate, priority 2020, published 2022).
# Bridge positions count the residues as written; N and C are the ends. Square brackets hold non-standard residues; d marks the D form. Peptide text beside a SMILES is read from it. PEG6 = NCCOCCOCCOCCOCCOCCOCCC(=O)O; R8 = C=CCCCCCC[C@@](C)(N)C(=O)O; S5 = C=CCCC[C@](C)(N)C(=O)O
# System: HCT116 cells
# Test: RNA-Seq in HCT116 cells, non-p53 genes / genome-wide transcription
# Format: cell-based, human
# Settings: DMSO control cells, no Nutlin
# Text: An expectation of our experimental strategy was that the bivalent peptide, which was designed based upon p53AD structure, would selectively block p53 function. […] RNA-Seq experiments in HCT116 cells represented a more rigorous test for selectivity. HCT116 cells express hundreds of sequence-specific, DNA-binding TFs, including high level expression of TFs that define the cell lineage. For HCT116 cells, these TFs include SREBF1, ELF3, JUNB, NR2F1, and MYC. To assess the general impact of the bivalent peptide on pol II transcription, we compared RNA-Seq data from DMSO control cells (i.e. no Nutlin treatment) in the presence/absence of bivalent peptide.
# Electroporation of bivalent peptide into HCT116 cells (RNA-Seq experiment 1): Two 6-well plates (HCT116 cells) were grown to about 80% confluency. Cells were then trypsinized, washed with PBS, and resuspended in 150 μL Neon Buffer R. The cells were then split into two groups: No peptide and 10 μM peptide. The cells were then drawn into a 10 μL Neon pipet tip, electroporated and ejected into 2 mL of McCoy's 5A media without antibiotic. For each experiment, two cell electroporation aliquots were added to media containing either 0.1% DMSO (control) or 10 μM Nutlin-3a (in DMSO, to a final concentration of 0.1%). […]
structure (smiles),measurement,value
CC[C@H](C)[C@H](NC(=O)[C@H](CC(=O)O)NC(=O)[C@H](CC(=O)O)NC(=O)[C@@H]1CCCN1C(=O)[C@H](CO)NC(=O)[C@H](CC(C)C)NC(=O)CCOCCOCCOCCOCCOCCOCCNC(=O)[C@H](CCCNC(=N)N)NC(=O)[C@H](CCCNC(=N)N)NC(=O)[C@]1(C)CCCC=CCCCCCC[C@@](C)(NC(=O)[C@H](Cc2ccccc2)NC(=O)[C@H](CCCNC(=N)N)NC(=O)[C@H](CCC(=O)O)NC(=O)[C@H](CCC(N)=O)NC(=O)[C@H](CO)NC(=O)[C@H](CCCNC(=N)N)NC(C)=O)C(=O)N[C@@H](CC(=O)O)C(=O)N[C@@H](CC(C)C)C(=O)N[C@@H](Cc2c[nH]c3ccccc23)C(=O)N[C@@H](CCCCN)C(=O)N[C@@H](CCCNC(=N)N)C(=O)N[C@@H](CC(C)C)C(=O)N1)C(=O)N[C@@H](CCC(=O)O)C(=O)N[C@@H](CCC(N)=O)C(=O)N[C@@H](Cc1c[nH]c2ccccc12)C(=O)N[C@@H](Cc1ccccc1)C(=O)N[C@H](C(=O)N[C@@H](CCC(=O)O)C(=O)N[C@@H](CC(=O)O)C(N)=O)[C@@H](C)O [bivalent peptide] (Ac-RSQERF[R8]DLWKRL[S5]RR[PEG6]LSPDDIEQWFTED-NH2; staple 7-14; N-terminus assumed),effect on pol II transcription genome-wide,minor effect on pol II transcription
